System: human umbilical vein endothelial cells (HUVEC)
Assay: Migration of endothelial cells, Boyden chamber method
Type: cell-based
Conditions: positive control, 10 ng/mL VEGF, cultured 2 hours
Description: 0.1% gelatin was applied on a polycarbonate membrane (Costar, USA) for 10 minutes and dried at room temperature for 1 hour. 30 μL of human umbilical vein endothelial cells (HUVEC, 1×10^6 cells/mL) was put in a lower chamber of a trans-wells (Costar, USA), covered with the dried polycarbonate membrane, and an upper chamber was overlaid, followed by fixing by a screw. The chamber was turned over so that the cells could be attached to the membrane and cultured at 37° C. in a CO2 incubator for 2 hours.
50 μL of Stewartia koreana extract according to the present invention was added to the upper chamber and cultured for 2 hours. The polycarbonate membrane was died using the diff-quick staining agent and the migrated endothelial cells were counted through the polycarbonate membrane using a microscope (Table 1). Each dry extract powder of Stewartia koreana otained in Example were dissolved in water in an amount of 100 μg/mL. The negative control was water and the positive control was 10 ng/mL of VEGF (vascular endothelialgrowth factor, Sigma).
The polycarbonate membrane was stained with diff-quick staining agent and the number of the endothelial cells which had migrated through the polycarbonate membrane was then counted using a microscope (FIG. 1). […] The dry powder of the ethanol extract of Stewartia koreana and compound Madecassol™ were added to water in an amount of 12.5 to 100 μg/mL.

## VEGF
  Migrated endothelial cells: 75 ± 0.41

Source: patent publication US20100028463A1, “EXTRACT OF STEWARTIA KOREANA AND USE THEREOF” (priority 2006, published 2010)
